In PMC5556071, “ATR inhibition facilitates targeting of leukemia dependence on convergent nucleotide biosynthetic pathways” (Nature Communications, 2017):
“And” between values parts separate entries of the source, which are not always exact repeats. Identical values can stand only once.

Test system: CEM cells
Assay: Non-targeted LC-MS metabolite profiling: percent [13C6]glucose labeling and relative metabolite levels
Assay type: cell-based, human
Conditions: CEM cells, 12 h following release from G1 arrest, replicates #1-#6
Source text: To further investigate the functions of dCK and ATR at the G1/S transition in CEM cells, a non-targeted liquid chromatography mass spectrometry (LC-MS) assay was used to determine the utilization of labeled [^13C6]glucose and [^13C9,^15N3]deoxycytidine, the main substrates for de novo and salvage nucleotide biosynthesis, respectively. Of the 166 metabolites identified in CEM cells treated with VE-822 and/or dCKi, 105 metabolites found in all four treatment groups contained glucose-derived ^13C atoms. […] These metabolites included intermediates such as rUTP, rCTP and rCDP in the de novo dCTP biosynthesis (Fig. 1d). […] However, several deoxyribonucleotides, including dCTP, were below the limit of detection of the non-targeted LC-MS approach, raising the concern that the sensitivity of this assay is not sufficient to measure the contribution of the salvage pathway or the ratio of de novo and salvage biosynthesis to these pools. To address this problem, a newly developed targeted MS assay was developed (Fig. 1e and Supplementary Fig. 3). In this assay, samples containing either extracted dNTPs or hydrolyzed DNA from labeled cells are separated by LC for detection by a triple quadrupole mass spectrometer using multiple reaction monitoring (LC-MS/MS-MRM). The first (Q1) and third (Q3) quadrupoles function as mass filters, while the second (Q2) quadrupole serves as a collision chamber (Fig. 1e). For instance, to profile the biosynthetic composition of deoxycytidine (dC) derived from hydrolyzed DNA or dCTP, an intact, protonated dC ion is selected in Q1, followed by fragmentation of the glycosidic bond, which releases protonated cytosine in Q2, that is filtered in Q3 and detected to generate an ion chromatogram. The peak areas for the ion chromatograms of salvage [^13C9,^15N3]dC (red trace), de novo [^13C5]dC (black trace, from [^13C6]glucose) and unlabeled dC (gray trace) (Fig. 1e) are used to determine the relative contributions of the de novo and salvage routes both to dCTP pools and to DNA-incorporated dCTP.
Cells were transferred into RPMI-1640 without glucose and supplemented with 10% dialyzed FBS (Gibco) containing the following labeled substrates: precursors for de novo [U-^13C6]glucose (Sigma-Aldrich, 389374) at 11 mM; precursors for purine salvage [U-^13C10,^15N5]dA (Cambridge Isotopes, CIL 3896), [^15N5]dA (Cambridge Isotopes, NLM-3895) and [^15N5]dG (Cambridge Isotopes, NLM-3899) at 5 µM or as indicated; and precursors for pyrimidine salvage: [U-^13C9,^15N3]dC (Silantes, 124603602) and [U-^13C10,^15N2]dT (Cambridge Isotopes, CNLM-3902) at 5 µM and [^15N2]orotate (Cambridge Isotopes, NLM-1048) at indicated concentrations. The cells were incubated for 12 h or as indicated before sample collection and processing. […]
Non-targeted LC-MS metabolic assays. 1 x 10^6 cells were washed with ice-cold 150 mM ammonium acetate twice before adding 1 mL of ice-cold 80% methanol with 10 nM norvaline as an internal standard. After vigorous vortexing, samples were centrifuged at maximum speed, the aqueous layer was transferred to a glass vial and the metabolites were dried under vacuum. Metabolites were resuspended in 50 μL 70% acetonitrile (ACN) and 5 μL of this solution used for the mass spectrometer-based analysis. The analysis was performed on a Q Exactive (Thermo Scientific) in polarity-switching mode with positive voltage 4.0 kV and negative voltage 4.0 kV. The mass spectrometer was coupled to an UltiMate 3000RSLC (Thermo Scientific) UHPLC system. Mobile phase A was 5 mM ammonium acetate (NH4AcO), pH 9.9, B was acetonitrile and the separation achieved on a Luna […] NH2 100 A column (150 × 2.0 mm, Phenomenex). The flow was 200 μL/min, and the gradient ran from 15% A to 95% A in 18 min, followed by an isocratic step for 9 min and re-equilibration for 7 min. Metabolites were detected and quantified as area under the curve based on retention time and accurate mass (≤ 3 p.p.m.) using the TraceFinder 3.1 (Thermo Scientific). Relative amounts of […]

For `CNCc1ccc(-c2cc(-c3nc(-c4ccc(S(=O)(=O)C(C)C)cc4)cnc3N)on2)cc1` [VE-822], the “Glucose labeling, Tyr (C00082)” value was 0.00%, the “Glucose labeling, Uric Acid (C00366)” value was 0.00% and the “Relative level, Orotate” value was 0.7. The “Glucose labeling, Lac” value (listed as V) was 18.07% and 12.73% and 18.58% and 10.84% and 13.61% and 9.63%, the “Glucose labeling, Lys” value (listed as V) was 0.00% (4×) and 1.11e-14% (2×) and the “Glucose labeling, Mal” value (listed as V) was 21.43% and 21.55% and 21.63% and 20.66% and 20.63% and 19.36%. For the same compound, the “Glucose labeling, Met” value (listed as V) was 0.00201% and 0.00233% and 0.002% and 0.0022% and 0.00164% and 0.00224%, the “Glucose labeling, N-Carbamoyl-L-aspartate” value (listed as V) was 0.12% (3×) and 1.58% and 100.00% (2×) and the “Glucose labeling, NADP+” value (listed as V) was 0.00% (5×) and 100.00%. The “Glucose labeling, Nicotinamide” value (listed as V) was 0.00% (4×) and -2.22e-14% and 1.11e-14%, the “Glucose labeling, Ornithine” value (listed as V) was 0.12% (3×) and 0.10% and 0.0528% and 0.00133% and the “Glucose labeling, Orotate” value (listed as V) was 100.00% (5×) and 0.0318%. The “Glucose labeling, Orotidine” value (listed as V) was 33.66% and 31.88% and 29.83% and 33.19% and 33.56% and 35.92%, the “Glucose labeling, P-Choline” value (listed as V) was 0.00204% (2×) and 0.00195% and 0.0016% and 0.00194% and 0.00159% and the “Glucose labeling, P-Ser” value (listed as V) was 17.40% and 18.30% and 18.56% and 14.37% and 10.74% and 15.47%. For the same compound, the “Glucose labeling, Palmitate” value (listed as V) was 0.0183% and 0.0339% and 0.00791% and 0.04% and 0.0649% and 0.00591%, the “Glucose labeling, Pantothenate” value (listed as V) was 0.00% (5×) and 1.11e-14% and the “Glucose labeling, Pro” value (listed as V) was 9.73% and 9.96% and 9.64% and 8.05% and 8.31% and 8.35%. For the same compound, the “Glucose labeling, Pro-OH” value (listed as V) was 0.00141% and 0.00104% and 0.000977% and 0.00201% and 0.00147% and 0.00157%, the “Glucose labeling, R5P” value (listed as V) was 100.00% (5×) and 87.46% and the “Glucose labeling, S7P” value (listed as V) was 82.53% and 82.63% and 83.80% and 82.99% and 87.27% and 79.29%. The “Glucose labeling, SAM” value (listed as V) was 61.24% and 62.78% and 63.01% and 60.62% and 59.88% and 60.86%, the “Glucose labeling, Ser (C00065)” value (listed as V) was 11.13% and 10.40% and 10.89% and 9.46% and 9.59% and 9.87% and the “Glucose labeling, Shikimate (C00493)” value (listed as V) was 0.00% (5×) and 1.11e-14%. The “Glucose labeling, Succ (C00042)” value (listed as V) was 0.93% and 0.0737% (3×) and 0.000466% and 0.000404%, the “Glucose labeling, T (C00214)” value (listed as V) was 0.47% and 0.23% and 0.34% and 0.00858% and 0.08% (2×) and the “Glucose labeling, Thymine (C00178)” value (listed as V) was 0.000884% and 0.000908% and 0.01% and 0.02% (2×) and 0.000701%. For the same compound, the “Glucose labeling, Trp (C00078)” value (listed as V) was 0.00% (4×) and -2.22e-14% and 1.11e-14%, the “Glucose labeling, Tyramine (C00483)” value (listed as V) was 0.00% (4×) and -2.22e-14% and 1.11e-14% and the “Glucose labeling, UDP (C00015)” value (listed as V) was 69.98% and 62.30% and 68.54% and 67.03% and 57.99% and 53.20%. The “Glucose labeling, UDP-Glc (C00029)” value (listed as V) was 98.27% and 97.52% and 97.62% and 96.48% and 95.86% and 94.41%, the “Glucose labeling, UDP-GlcNAc (C00043)” value (listed as V) was 91.42% and 92.87% (2×) and 89.85% and 89.76% and 89.80% and the “Glucose labeling, UMP (C00105)” value (listed as V) was 70.24% and 69.75% and 64.97% and 37.55% and 64.64% and 60.30%. For the same compound, the “Glucose labeling, UTP (C00075)” value (listed as V) was 73.32% and 70.31% and 75.59% and 75.28% and 69.74% and 72.15%, the “Glucose labeling, Uracil (C00106)” value (listed as V) was 0.06% and 0.05% and 0.00305% and 0.0378% and 0.0737% (2×) and the “Glucose labeling, Urocanate (C00785)” value (listed as V) was 0.00% (5×) and -2.22e-14%. The “Glucose labeling, Val (C00183)” value (listed as V) was 0.00% (5×) and -2.22e-14%, the “Glucose labeling, Vit-C (C00072)” value (listed as V) was 0.00% (5×) and -2.22e-14% and the “Glucose labeling, Xanthine (C00385)” value (listed as V) was 0.12% (2×) and 0.06% and 0.0856% and 0.09% (2×). The “Relative level, Lac” value (listed as V) was 1.3 (2×) and 1.2 and 0.857 and 0.476 and 0.85, the “Relative level, Leu/Ile” value (listed as V) was 1.4 and 1.5 (2×) and 0.9 (2×) and 1.0 and the “Relative level, Lys” value (listed as V) was 1.7 and 1.9 and 1.8 and 0.9 and 1.0 and 1.2. For the same compound, the “Relative level, Mal” value (listed as V) was 1.3 and 0.7 and 0.752 and 0.6 and 0.471 and 0.4, the “Relative level, Met” value (listed as V) was 1.5 (3×) and 0.9 (2×) and 1.0 and the “Relative level, N-Carbamoyl-L-aspartate” value (listed as V) was 1.0 and 0.6 and 0.7 and 0.749. The “Relative level, NAD+” value (listed as V) was 1.0 and 0.9 (2×) and 0.647 and 0.7 and 0.752, the “Relative level, NADP+” value (listed as V) was 0.455 and 0.8 and 0.9 and 0.657 and 0.3 and the “Relative level, Nicotinamide” value (listed as V) was 1.2 (2×) and 1.1 and 1.0 and 0.9 and 0.854. For the same compound, the “Relative level, Ornithine” value (listed as V) was 1.1 and 1.4 (2×) and 0.7 and 0.9 and 1.0, the “Relative level, Orotidine” value (listed as V) was 1.0 (3×) and 0.6 (2×) and 0.567 and the “Relative level, P-Choline” value (listed as V) was 1.3 and 1.1 (2×) and 0.76 and 0.66 and 0.557. The “Relative level, P-Creatine” value (listed as V) was 1.7 and 0.9 (2×) and 0.7 and 1.5 and 1.2, the “Relative level, P-EtA” value (listed as V) was 1.1 and 0.7 and 0.6 and 1.7 and 0.744 and 0.5 and the “Relative level, P-Ser” value (listed as V) was 1.0 (2×) and 1.1 and 0.37 and 0.234 and 0.273. For the same compound, the “Relative level, PEP” value (listed as V) was 0.435 and 0.082, the “Relative level, Palmitate” value (listed as V) was 0.9 (3×) and 1.1 and 1.2 and 1.0 and the “Relative level, Pantothenate” value (listed as V) was 1.2 and 1.3 and 1.4 and 0.7 and 0.8 (2×). For the same compound, the “Relative level, Phe” value (listed as V) was 1.4 and 1.5 (2×) and 0.9 (2×) and 1.0, the “Relative level, Pipecolate” value (listed as V) was 1.6 and 1.9 and 1.8 and 0.9 (2×) and 1.2 and the “Relative level, Pro” value (listed as V) was 1.3 (2×) and 1.4 and 0.851 and 0.9 (2×). The “Relative level, Pro-OH” value (listed as V) was 1.3 and 1.4 (2×) and 0.9 (3×), the “Relative level, Pyr” value (listed as V) was 2.1 and 3.2 and 1.3 and 0.7 and 1.1 and 6.3 and the “Relative level, R5P” value (listed as V) was 3.5 and 1.8 and 2.1 and 1.2 and 0.468 and 0.53. The “Relative level, S7P” value (listed as V) was 3.0 and 1.6 and 2.7 and 1.2 and 0.9 and 0.6 and the “Relative level, SAM” value (listed as V) was 1.6 and 1.7 (2×) and 0.9 and 1.1 (2×).
